Paper PMC2810552 (Journal of medicinal chemistry, 2009)
Read-outs that look alike come from different tables or passages of the source.

Legend:
[1] = target: T1, Gal4DBD-GRLBD-VP16 fusion protein in HeLa cells (Homo sapiens, UniProt P04150); assay type: cell-based; conditions: for Luc activity induced (in words): up to 6 µM
T1 sequence (P04150 524-758 limits assumed): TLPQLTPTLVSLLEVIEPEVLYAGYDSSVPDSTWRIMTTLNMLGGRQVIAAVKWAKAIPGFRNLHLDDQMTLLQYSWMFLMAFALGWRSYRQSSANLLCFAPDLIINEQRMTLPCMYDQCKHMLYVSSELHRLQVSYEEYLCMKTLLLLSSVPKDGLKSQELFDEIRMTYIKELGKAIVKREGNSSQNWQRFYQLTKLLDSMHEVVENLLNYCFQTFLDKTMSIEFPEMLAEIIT

[2] = target: T2, breast cancer cell line MCF7 (Homo sapiens, UniProt P04150); experiment: Cell-based functional permeability assay: luciferase reporter in MCF7 cells
T2 sequence (P04150 524-758 limits assumed): T1 sequence (P04150 524-758 limits assumed)

[3] = Solubility limit observed in the Luc assay; assay type: physicochemical; conditions: cell-based Luc induction (reporter) assay in HeLa cells
[4] = target: T1, Gal4DBD-GRLBD-VP16 fusion protein in HeLa cells; conditions: cited from earlier work

SMILES: C[C@H]1C[C@@H]2[C@H]3CCC4=CC(=O)C=C[C@@]4(C)[C@]3(F)[C@H](O)C[C@@]2(C)[C@]1(O)C(=O)CSCCNC(=S)NCCNC(=O)c1cc(NC(=O)c2cc(NC(=O)c3cc(NC(=O)c4cc(NC(=O)c5nccn5C)cn4C)cn3C)cn2C)cn1C [ImPy4-Et-Sdex (20), ImPy4-Et-Sdex]
- Luc activity induced (in words) [1]: did not achieve the maximum induction at 6 µM

SMILES: C[C@H]1C[C@@H]2[C@H]3CCC4=CC(=O)C=C[C@@]4(C)[C@]3(F)[C@H](O)C[C@@]2(C)[C@]1(O)C(=O)CSCCNC(=S)NCCNC(=O)c1cc(NC(=O)c2cc(NC(=O)c3cc(NC(=O)c4cc(NC(=O)CCCNC(=O)c5cc(NC(=O)c6nccn6C)cn5C)cn4C)cn3C)cn2C)cn1C [ImPy5γ-Et-Sdex (18), ImPy5γ-Et-Sdex]
- Luc activity induced (in words) [1]: higher levels compared to ImPy4γ-Et-Sdex (19)

SMILES: CC(=O)NCCNC(=S)NCCSCC(=O)[C@@]1(O)[C@H](C)C[C@H]2[C@@H]3CCC4=CC(=O)C=C[C@]4(C)[C@@]3(F)[C@@H](O)C[C@@]21C [Ac-Et-Sdex (15), Ac-Et-Sdex]
- concentration at which maximum Luc induction was achieved [1]: 0.6 µM
- EC50 [2]: 250 nM
- concentration at which maximum Luc induction was achieved ([2]; MCF7 cells): 1 µM
- maximum Luc induction ([2]; MCF7 cells): 1,200 fold

SMILES: C[C@H]1C[C@@H]2[C@H]3CCC4=CC(=O)C=C[C@@]4(C)[C@]3(F)[C@H](O)C[C@@]2(C)[C@]1(O)C(=O)CSCCNC(=S)NCCNC(=O)c1cc(NC(=O)c2cc(NC(=O)c3cc(NC(=O)c4cc(NC(=O)CCCNC(=O)c5cc(NC(=O)c6cc(NC(=O)c7cc(NC(=O)c8nccn8C)cn7C)cn6C)cn5C)cn4C)cn3C)cn2C)cn1C [ImPy7γ-Et-Sdex (16), ImPy7γ-Et-Sdex]
- Luc activity induction at 6 µM ([1]; 6 µM): 1,500 fold
- Luc activity induced (in words) [1]: higher levels compared to ImPy4γ-Et-Sdex (19)
- Luc activity / cellular uptake (in words) ([2]; MCF7 cells): modest improvement of cellular uptake

SMILES: C[C@H]1C[C@@H]2[C@H]3CCC4=CC(=O)C=C[C@@]4(C)[C@]3(F)[C@H](O)C[C@@]2(C)[C@]1(O)C(=O)CSCCNC(=S)NCCNC(=O)c1cc(NC(=O)c2cncn2C)cn1C [ImPy-Et-Sdex (23), ImPy-Et-Sdex]
- maximum Luc induction [1]: 3700 fold
- EC50 [2]: 940 nM

SMILES: C[C@H]1C[C@@H]2[C@H]3CCC4=CC(=O)C=C[C@@]4(C)[C@]3(F)[C@H](O)C[C@@]2(C)[C@]1(O)C(=O)NCCNC(=O)c1cc(NC(=O)c2cc(NC(=O)c3cc(NC(=O)c4cc(NC(=O)CCCNC(=O)c5cc(NC(=O)c6cc(NC(=O)c7cc(NC(=O)c8nccn8C)cn7C)cn6C)cn5C)cn4C)cn3C)cn2C)cn1C [ImPy7γ-Et-Oxdex (24), ImPy7γ-Et-Oxdex]
- Luc induction at 10 µM, times lower than that of ImPy2-Et-Oxdex [1]: 4 times
- Luc induction at 10 µM, times lower than that of ImPy-Et-Oxdex [1]: 7 times
- solubility [3]: ≤ 10 µM

SMILES: CC(=O)NCCCN(C)CCCNC(=S)NCCSCC(=O)[C@@]1(O)[C@H](C)C[C@H]2[C@@H]3CCC4=CC(=O)C=C[C@]4(C)[C@@]3(F)[C@@H](O)C[C@@]21C [Ac-Da-Sdex (28), Ac-Da-Sdex]
- concentration at which maximum Luc induction was achieved [1]: 6 µM
- maximum Luc induction [1]: 3,000 fold

SMILES: C[C@H]1C[C@@H]2[C@H]3CCC4=CC(=O)C=C[C@@]4(C)[C@]3(F)[C@H](O)C[C@@]2(C)[C@]1(O)C(=O)CSCCNC(=S)NCCNC(=O)c1cc(NC(=O)c2cc(NC(=O)c3nccn3C)cn2C)cn1C [ImPy2-Et-Sdex (22), ImPy2-Et-Sdex]
- concentration at which maximum Luc induction was achieved [1]: 6 µM

SMILES: C[C@H]1C[C@@H]2[C@H]3CCC4=CC(=O)C=C[C@@]4(C)[C@]3(F)[C@H](O)C[C@@]2(C)[C@]1(O)C(=O)CSCCNC(=S)NCCNC(=O)c1cc(NC(=O)c2cc(NC(=O)c3cc(NC(=O)c4nccn4C)cn3C)cn2C)cn1C [ImPy3-Et-Sdex (21), ImPy3-Et-Sdex]
- Luc activity induced (in words) [1]: did not achieve the maximum induction at 6 µM

SMILES: C[C@H]1C[C@@H]2[C@H]3CCC4=CC(=O)C=C[C@@]4(C)[C@]3(F)[C@H](O)C[C@@]2(C)[C@]1(O)C(=O)NCCNC(=O)c1cc(NC(=O)c2nccn2C)cn1C [ImPy-Et-Oxdex (27), ImPy-Et-Oxdex]
- concentration at which maximum Luc induction was achieved [1]: ~20 µM

SMILES: C[C@H]1C[C@@H]2[C@H]3CCC4=CC(=O)C=C[C@@]4(C)[C@]3(F)[C@H](O)C[C@@]2(C)[C@]1(O)C(=O)CSCCNC(=S)NCCNC(=O)c1cc(NC(=O)c2cc(NC(=O)c3cc(NC(=O)c4cc(NC(=O)CCCNC(=O)c5cc(NC(=O)c6cc(NC(=O)c7nccn7C)cn6C)cn5C)cn4C)cn3C)cn2C)cn1C [ImPy6γ-Et-Sdex (17), ImPy6γ-Et-Sdex]
- Luc activity induced (in words) [1]: higher levels compared to ImPy4γ-Et-Sdex (19)

SMILES: C[C@@H]1C[C@H]2[C@@H]3CCC4=CC(=O)C=C[C@]4(C)[C@@]3(F)[C@@H](O)C[C@]2(C)[C@@]1(O)C(N)=O [Oxdex-CONH2 (4), Oxdex-CONH2, reference compound]
- EC50 ([4]; read-out: EC50 of Luc induction, HeLa cells): 35000 ± 3000 nM

SMILES: C[C@H]1C[C@@H]2[C@H]3CCC4=CC(=O)C=C[C@@]4(C)[C@]3(F)[C@H](O)C[C@@]2(C)[C@]1(O)C(=O)CSCCNC(=S)NCCNC(=O)c1cc(NC(=O)c2cc(NC(=O)c3cc(NC(=O)c4cc(NC(=O)CCCNC(=O)c5nccn5C)cn4C)cn3C)cn2C)cn1C [ImPy4γ-Et-Sdex (19), ImPy4γ-Et-Sdex]
- Luc activity induced (in words) [1]: lowest Luc activity among all Sdex conjugates

SMILES: C[C@@H]1C[C@H]2[C@@H]3CCC4=CC(=O)C=C[C@]4(C)[C@@]3(F)[C@@H](O)C[C@]2(C)[C@@]1(O)C(=O)CSCCNC(=S)NCCCN(C)CCCNC(=O)CCNC(=O)c1cc(NC(=O)c2cc(NC(=O)c3cc(NC(=O)c4cc(NC(=O)CCCNC(=O)c5cc(NC(=O)c6cc(NC(=O)c7cc(NC(=O)c8nccn8C)cn7C)cn6C)cn5C)cn4C)cn3C)cn2C)cn1C [ImPy7γ-βDa-Sdex (6), ImPy7γ-βDa-Sdex]
- Luc activity induced (in words) ([4]; cell-based functional assay): modest Luc activity

SMILES: C[C@H]1C[C@@H]2[C@H]3CCC4=CC(=O)C=C[C@@]4(C)[C@]3(F)[C@H](O)C[C@@]2(C)[C@]1(O)C(=O)NCCNC(=O)c1cc(NC(=O)c2cc(NC(=O)c3cc(NC(=O)c4nccn4C)cn3C)cn2C)cn1C [ImPy3-Et-Oxdex (25), ImPy3-Et-Oxdex]
- Luc induction at 10 µM, times lower than that of ImPy2-Et-Oxdex [1]: 4 times
- Luc induction at 10 µM, times lower than that of ImPy-Et-Oxdex [1]: 7 times
- solubility [3]: ≤ 10 µM
